According to ChEMBL document CHEMBL5614424, “Natural Product-Inspired Discovery of Naphthoquinone-Furo-Piperidine Derivatives as Novel STAT3 Inhibitors for the Treatment of Triple-Negative Breast Cancer” (J Med Chem, 2024):
Active and inactive are the calls of the source. No cut-off for these calls is given here.

How the values were obtained:
[1] = tested on: MDA-MB-231; assay: Antiproliferative activity against human MDA-MB-231 cells assessed as cell viability incubated for 48 hrs measured after additional incubation with MTT; assay type: functional, cell-based; details: MDA-MB-231, 48 h
[2] = tested on: MDA-MB-468; assay: Antiproliferative activity against human MDA-MB-468 cells assessed as cell viability incubated for 48 hrs measured after additional incubation with MTT; assay type: functional, cell-based; details: MDA-MB-468, 48 h
[3] = Antiproliferative activity against human MCF-10A cells assessed as cell viability incubated for 48 hrs measured after additional incubation with MTT; assay type: toxicity, cell-based
[4] = tested on: L02; assay: Antiproliferative activity against human L02 cells assessed as cell viability incubated for 48 hrs measured after additional incubation with MTT; assay type: functional, cell-based; details: L02, 48 h
[5] = molecular target: Signal transducer and activator of transcription 3 (Homo sapiens) (UniProt P40763); assay: Suppression of STAT3 activation in human MDA-MB-231 cell assessed as decrease in phosphorylated STAT3 (p-STAT3 Tyr705) level at 3 uM measured after 24 hrs by Western blot analysis; assay type: cell-based
Chain of Signal transducer and activator of transcription 3 (Homo sapiens) (P40763 whole entry): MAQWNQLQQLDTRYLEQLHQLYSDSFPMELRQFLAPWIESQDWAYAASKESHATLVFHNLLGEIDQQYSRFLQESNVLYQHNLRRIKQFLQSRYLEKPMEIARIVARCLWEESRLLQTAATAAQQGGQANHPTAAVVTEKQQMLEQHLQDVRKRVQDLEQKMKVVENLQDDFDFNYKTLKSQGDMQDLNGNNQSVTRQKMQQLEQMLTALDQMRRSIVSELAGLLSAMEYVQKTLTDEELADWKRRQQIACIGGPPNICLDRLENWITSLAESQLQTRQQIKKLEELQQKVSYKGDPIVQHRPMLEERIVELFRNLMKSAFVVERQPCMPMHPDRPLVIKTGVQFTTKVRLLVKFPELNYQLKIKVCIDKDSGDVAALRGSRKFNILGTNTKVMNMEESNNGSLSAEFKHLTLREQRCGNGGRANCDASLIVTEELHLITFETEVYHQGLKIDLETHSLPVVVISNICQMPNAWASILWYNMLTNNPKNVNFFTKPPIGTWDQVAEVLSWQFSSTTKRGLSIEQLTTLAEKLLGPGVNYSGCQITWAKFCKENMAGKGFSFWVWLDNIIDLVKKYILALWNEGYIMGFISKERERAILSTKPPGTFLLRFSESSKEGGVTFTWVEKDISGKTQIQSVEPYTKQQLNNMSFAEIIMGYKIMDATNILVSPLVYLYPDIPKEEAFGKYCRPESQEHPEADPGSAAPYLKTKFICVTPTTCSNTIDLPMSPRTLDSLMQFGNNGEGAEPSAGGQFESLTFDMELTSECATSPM

[6] = molecular target: Signal transducer and activator of transcription 3 (Homo sapiens) (UniProt P40763); assay: Suppression of STAT3 activation in human MDA-MB-468 cell assessed as decrease in phosphorylated STAT3 (p-STAT3 Tyr705) level at 3 uM measured after 24 hrs by Western blot analysis; assay type: cell-based
[7] = tested on: MDA-MB-231; assay: Decrease in STAT3 level in human MDA-MB-231 cell at 3 uM measured after 24 hrs by Western blot analysis; assay type: functional, cell-based
[8] = tested on: MDA-MB-468; assay: Decrease in STAT3 level in human MDA-MB-468 cell at 3 uM measured after 24 hrs by Western blot analysis; assay type: functional, cell-based
[9] = Half life in male rat at 10 mg/kg, po measured upto 24 hrs by LC/MS/MS analysis; assay type: ADME, organism-based; details: in vivo
[10] = Half life in male rat at 10 mg/kg, ip measured upto 24 hrs by LC/MS/MS analysis; assay type: ADME, organism-based; details: in vivo
[11] = Half life in male rat at 5 mg/kg, iv measured upto 24 hrs by LC/MS/MS analysis; assay type: ADME, organism-based; details: in vivo
[12] = AUC(0 to t) in male rat at 10 mg/kg, po measured upto 24 hrs by LC/MS/MS analysis; assay type: ADME, organism-based; details: in vivo
[13] = AUC(0 to t) in male rat at 10 mg/kg, ip measured upto 24 hrs by LC/MS/MS analysis; assay type: ADME, organism-based; details: in vivo
[14] = AUC(0 to t) in male rat at 5 mg/kg, iv measured upto 24 hrs by LC/MS/MS analysis; assay type: ADME, organism-based; details: in vivo
[15] = AUC(0 to infinity) in male rat at 10 mg/kg, po measured upto 24 hrs by LC/MS/MS analysis; assay type: ADME, organism-based; details: in vivo
[16] = AUC(0 to infinity) in male rat at 10 mg/kg, ip measured upto 24 hrs by LC/MS/MS analysis; assay type: ADME, organism-based; details: in vivo
[17] = AUC(0 to infinity) in male rat at 5 mg/kg, iv measured upto 24 hrs by LC/MS/MS analysis; assay type: ADME, organism-based; details: in vivo
[18] = Cmax in male rat at 10 mg/kg, po measured upto 24 hrs by LC/MS/MS analysis; assay type: ADME, organism-based; details: in vivo
[19] = Cmax in male rat at 10 mg/kg, ip measured upto 24 hrs by LC/MS/MS analysis; assay type: ADME, organism-based; details: in vivo
[20] = Cmax in male rat at 5 mg/kg, iv measured upto 24 hrs by LC/MS/MS analysis; assay type: ADME, organism-based; details: in vivo
[21] = Tmax in male rat at 10 mg/kg, po measured upto 24 hrs by LC/MS/MS analysis; assay type: ADME, organism-based; details: in vivo
[22] = Tmax in male rat at 10 mg/kg, ip measured upto 24 hrs by LC/MS/MS analysis; assay type: ADME, organism-based; details: in vivo
[23] = Tmax in male rat at 5 mg/kg, iv measured upto 24 hrs by LC/MS/MS analysis; assay type: ADME, organism-based; details: in vivo
[24] = Oral bioavailability in male rat at 10 mg/kg measured upto 24 hrs by LC/MS/MS analysis; assay type: ADME, organism-based; details: in vivo

O=C1C(=O)c2c(oc3c2CCN(C(=O)c2ccccc2)C3)-c2ccccc21 showed an IC50 [1] of 5.71 µM, an IC50 [2] of 6.86 µM and an IC50 at 48 h [3] of 19.2 µM. The IC50 [4] was greater than 20 µM.

O=C1C(=O)c2c(oc3c2CCN(C(=O)c2ccco2)C3)-c2ccccc21 gave an IC50 [1] of 12.4 µM and an IC50 [2] of 12.9 µM.

O=C1C(=O)c2c(oc3c2CCN([C@H](CO)Cc2ccc(O)cc2)C3)-c2ccccc21 gave an IC50 [1] of 13.6 µM and an IC50 [2] of 13 µM.

Work on CN(C)C(=O)N1CCc2c(oc3c2C(=O)C(=O)c2ccccc2-3)C1 yielded an IC50 [1] of 4 µM, an IC50 [2] of 2.35 µM and an IC50 at 48 h [3] greater than 20 µM. The IC50 [4] was greater than 20 µM, the inhibition [5] was “Active” and the inhibition [6] was “Active”. For the same compound, the Activity [7] was “Active” and the Activity [8] was “Active”.

Work on CC(C)C[C@@H](CO)N1CCc2c(oc3c2C(=O)C(=O)c2ccccc2-3)C1.Cl yielded a half-life [9] of 6.5 h, a half-life [10] of 17.2 h and a half-life [11] of 17.2 h. It also gave an AUC(0-t) at 24 h [12] of 107 ng·h/mL, an AUC(0-t) at 24 h [13] of 571 ng·h/mL and an AUC(0-t) at 24 h [14] of 490 ng·h/mL. The AUC(0-inf) [15] was 106 ng·h/mL, the AUC(0-inf) [16] was 523 ng·h/mL and the AUC(0-inf) [17] was 493 ng·h/mL. The Cmax [18] was 78.4 ng/mL, the Cmax [19] was 272 ng/mL and the Cmax [20] was 972 ng/mL. It also gave a Tmax [21] of 0.4 h, a Tmax [22] of 0.1 h and a Tmax [23] of 4.8 min. For the same compound, the bioavailability [24] was 10.9%.

With CNC(=O)[C@H](C)N1CCc2c(oc3c2C(=O)C(=O)c2ccccc2-3)C1 the IC50 [1] was 4.14 µM, the IC50 [2] was 6.41 µM and the IC50 at 48 h [3] was 17.6 µM. For the same compound, the IC50 [4] was greater than 20 µM, the inhibition [5] was “Active” and the inhibition [6] was “Active”. The Activity [7] was “Active” and the Activity [8] was “Active”.

COC(=O)[C@H](C)N1CCc2c(oc3c2C(=O)C(=O)c2ccccc2-3)C1 showed an IC50 [1] of 3.14 µM, an IC50 [2] of 2.36 µM and an IC50 at 48 h [3] of 18.2 µM. For the same compound, the inhibition [5] was “inactive” and the inhibition [6] was “inactive”.

For O=C1C(=O)c2c(oc3c2CCN([C@H](CO)Cc2ccccc2)C3)-c2ccccc21, the IC50 [1] was 9.97 µM and the IC50 [2] was greater than 10 µM.

O=C1C(=O)c2c(oc3c2CCN(C(=O)c2cccs2)C3)-c2ccccc21 gave an IC50 [1] greater than 20 µM and an IC50 [2] of 12.9 µM.

With CN(C)c1ccc(C(=O)N2CCc3c(oc4c3C(=O)C(=O)c3ccccc3-4)C2)cc1 the IC50 [1] was greater than 20 µM, the IC50 [2] was greater than 20 µM and the IC50 at 48 h [3] was greater than 20 µM. For the same compound, the IC50 [4] was greater than 20 µM.

In the case of C[C@@H](CO)N1CCc2c(oc3c2C(=O)C(=O)c2ccccc2-3)C1, the IC50 [1] is reported as 3.41 µM, the IC50 [2] is reported as 5.42 µM and the IC50 at 48 h [3] is reported as 7.98 µM. For the same compound, the IC50 [4] was 7.87 µM, the inhibition [5] was “Active” and the inhibition [6] was “Active”.

With CNC(=O)[C@H](CC(C)C)N1CCc2c(oc3c2C(=O)C(=O)c2ccccc2-3)C1 the IC50 [1] was 7.99 µM and the IC50 [2] was 7.36 µM.

CNC(=O)CCN1CCc2c(oc3c2C(=O)C(=O)c2ccccc2-3)C1 gave an IC50 [1] of 4.5 µM, an IC50 [2] of 3.6 µM and an IC50 at 48 h [3] of 11 µM. For the same compound, the IC50 [4] was 12.5 µM, the inhibition [5] was “Active” and the inhibition [6] was “Active”. The Activity [7] was “Active” and the Activity [8] was “Active”.

Compound COC(=O)CCCN1CCc2c(oc3c2C(=O)C(=O)c2ccccc2-3)C1 has an IC50 [1] of 6.89 µM and an IC50 [2] of 9.12 µM.

For O=C1C(=O)c2c(oc3c2CCN(C(=O)c2cccc(C(F)(F)F)c2)C3)-c2ccccc21, the IC50 [1] was 12.5 µM and the IC50 [2] was greater than 20 µM.

O=C1C(=O)c2c(oc3c2CCN(CCCO)C3)-c2ccccc21 gave an IC50 [1] of 2.3 µM, an IC50 [2] of 2.32 µM and an IC50 at 48 h [3] of 11.1 µM. The IC50 [4] was 15.5 µM, the inhibition [5] was “Active” and the inhibition [6] was “Active”. For the same compound, the Activity [7] was “Active” and the Activity [8] was “Active”.

Work on COc1ccc(C(=O)N2CCc3c(oc4c3C(=O)C(=O)c3ccccc3-4)C2)cc1 yielded an IC50 [1] of 17.3 µM and an IC50 [2] greater than 20 µM.

CC(=O)N1CCc2c(oc3c2C(=O)C(=O)c2ccccc2-3)C1 showed an IC50 [1] of 4.57 µM, an IC50 [2] of 3.89 µM and an IC50 at 48 h [3] of 17.8 µM. The IC50 [4] was 16.6 µM, the inhibition [5] was “Active” and the inhibition [6] was “Active”.

In the case of O=C1C(=O)c2c(oc3c2CCNC3)-c2ccccc21, the IC50 [1] is reported as 7.11 µM and the IC50 [2] is reported as 9.23 µM.

In the case of O=C1C(=O)c2c(oc3c2CCN(CCO)C3)-c2ccccc21, the IC50 [1] is reported as 1.19 µM, the IC50 [2] is reported as 1.57 µM and the IC50 at 48 h [3] is reported as 2.89 µM. The IC50 [4] was 3.91 µM, the inhibition [5] was “Active” and the inhibition [6] was “Active”. It also gave a half-life [9] of 4 h, a half-life [10] of 3.5 h and a half-life [11] of 2.4 h. For the same compound, the AUC(0-t) at 24 h [12] was 47.2 ng·h/mL, the AUC(0-t) at 24 h [13] was 219 ng·h/mL and the AUC(0-t) at 24 h [14] was 611 ng·h/mL. The AUC(0-inf) [15] was 50.1 ng·h/mL, the AUC(0-inf) [16] was 241 ng·h/mL and the AUC(0-inf) [17] was 645 ng·h/mL. The Cmax [18] was 34.4 ng/mL, the Cmax [19] was 107 ng/mL and the Cmax [20] was 237 ng/mL. For the same compound, the Tmax [21] was 1.1 h, the Tmax [22] was 0.7 h and the Tmax [23] was 4.8 min. For the same compound, the bioavailability [24] was 3.8%.

With O=C1C(=O)c2c(oc3c2CCN(C(=O)c2ccc(F)cc2)C3)-c2ccccc21 the IC50 [1] was 10.9 µM and the IC50 [2] was 12 µM.
